# Source: paper PMC11915801, “Evolutionary trajectory of bacterial resistance to antibiotics and antimicrobial peptides in Escherichia coli” (mSystems, 2025)
# Where two headings read alike, the source gives them in different places. Where a SMILES comes first, the peptide text is derived from it.
# Experiments:
# Test in all cases: microbe, parasite or virus in culture
# Format in all cases: cell-based, Escherichia coli
# E. coli K-12 MG1655 = settings: for MIC: Escherichia coli
# Protocol: (§1) The broth microdilution method was used to measure the MIC values of antibiotics and peptides according to the Clinical and Laboratory Standards Institute guidelines. The MIC value is defined as the lowest drug concentration without visible bacteria.
# Eight antibiotics and ten AMPs at the sub-inhibitory concentration were prepared. A 300-µL system, including 260 µL of MH broth, 30 µL of prepared drug, and 10 µL of bacterial culture, was used for resistance passages. After 12 h of incubation at 37℃ and 200 rpm, 10 µL of the above bacterial culture was added into the new sterile drug-containing broth. MIC values of bacterial culture were determined. The drug concentration was adjusted according to the MIC value change until the end of the 120 passages.
# AMP120 (evolved MG1655) = settings: broth microdilution, ampicillin-evolved strain
# From the text: (§2) To ensure the stable resistance evolution and inheritance of MG1655 under different drugs, we randomly selected three monoclonals from the evolved strains. The final antibiotic-evolved strains were designated as AMP120, AZI120, CHL80, CIP120, DOX120, KAN80, NIT70, and TMP30, while the final AMP-evolved strains were named COL120, Ind120, Omi120, Pex120, PGLA120, Pleu120, R8120, SAAP120, LI120, and SLAP120.
# as §1
# AZI120 (evolved MG1655) = settings: broth microdilution, azithromycin-evolved strain
# From the text: as §2, §1
# CHL80 (evolved MG1655) = settings: broth microdilution, chloramphenicol-evolved strain
# From the text: as §2, §1
# CIP120 (evolved MG1655) = settings: broth microdilution, ciprofloxacin-evolved strain
# From the text: as §2, §1
# COL120 (evolved MG1655) = settings: broth microdilution, colistin-evolved strain
# From the text: as §2, §1
# DOX120 (evolved MG1655) = settings: broth microdilution, doxycycline-evolved strain
# From the text: as §2, §1
# KAN80 (evolved MG1655) = settings: broth microdilution, kanamycin-evolved strain
# From the text: as §2, §1
# NIT70 (evolved MG1655) = settings: broth microdilution, nitrofurantoin-evolved strain
# From the text: as §2, §1
# TMP30 (evolved MG1655) = settings: broth microdilution, trimethoprim-evolved strain
# From the text: as §2, §1
structure (smiles),measurement,setting,value
"CC1(C)S[C@@H]2[C@H](NC(=O)[C@H](N)c3ccccc3)C(=O)N2[C@H]1C(=O)O [AMP, Ampicillin]",MIC,"E. coli K-12 MG1655; MG1655, 12 h, read-out: MIC of MG1655 under the pressure of the same drug, generation 10",8 µg/mL
same,MIC,"E. coli K-12 MG1655; MG1655, read-out: MIC of MG1655 under the pressure of the same drug, generation primary",4 µg/mL
same,MIC,"E. coli K-12 MG1655; MG1655, as E2, generation 20, read-out: MIC of MG1655 under the pressure of the same drug, generation 20",8 µg/mL
same,MIC,"E. coli K-12 MG1655; MG1655, as E2, generation 30, read-out: MIC of MG1655 under the pressure of the same drug, generation 30",8 µg/mL
same,MIC,"E. coli K-12 MG1655; MG1655, as E2, generation 40, read-out: MIC of MG1655 under the pressure of the same drug, generation 40",16 µg/mL
same,MIC,"E. coli K-12 MG1655; MG1655, as E2, generation 50, read-out: MIC of MG1655 under the pressure of the same drug, generation 50",16 µg/mL
same,MIC,"E. coli K-12 MG1655; MG1655, as E2, generation 60, read-out: MIC of MG1655 under the pressure of the same drug, generation 60",16 µg/mL
same,MIC,"E. coli K-12 MG1655; MG1655, as E2, generation 70, read-out: MIC of MG1655 under the pressure of the same drug, generation 70",16 µg/mL
same,MIC,"E. coli K-12 MG1655; MG1655, as E2, generation 80, read-out: MIC of MG1655 under the pressure of the same drug, generation 80",16 µg/mL
same,MIC,"E. coli K-12 MG1655; MG1655, as E2, generation 90, read-out: MIC of MG1655 under the pressure of the same drug, generation 90",32 µg/mL
same,MIC,"E. coli K-12 MG1655; MG1655, as E2, generation 100, read-out: MIC of MG1655 under the pressure of the same drug, generation 100",32 µg/mL
same,MIC,"E. coli K-12 MG1655; MG1655, as E2, generation 110, read-out: MIC of MG1655 under the pressure of the same drug, generation 110",64 µg/mL
same,MIC,"E. coli K-12 MG1655; MG1655, as E2, generation 120, read-out: MIC of MG1655 under the pressure of the same drug, generation 120",64 µg/mL
same,MIC,"AMP120 (evolved MG1655); Escherichia coli, MG1655",64 µg/mL
same,MIC,"AZI120 (evolved MG1655); Escherichia coli, MG1655",2 µg/mL
same,MIC,"CHL80 (evolved MG1655); Escherichia coli, MG1655",64 µg/mL
same,MIC,CIP120 (evolved MG1655); Escherichia coli,16 µg/mL
same,MIC,"COL120 (evolved MG1655); Escherichia coli, MG1655",4 µg/mL
same,MIC,"DOX120 (evolved MG1655); Escherichia coli, MG1655",32 µg/mL
same,MIC,"KAN80 (evolved MG1655); Escherichia coli, MG1655",4 µg/mL
same,MIC,"NIT70 (evolved MG1655); Escherichia coli, MG1655",4 µg/mL
same,MIC,"TMP30 (evolved MG1655); Escherichia coli, MG1655",4 µg/mL
"CC(C)C[C@H](NC(=O)[C@H](Cc1ccc(O)cc1)NC(=O)[C@H](Cc1c[nH]cn1)NC(=O)[C@@H](NC(=O)[C@H](CC(C)C)NC(=O)[C@H](C)NC(=O)[C@H](C)NC(=O)[C@H](CCCCN)NC(=O)CNC(=O)[C@@H](NC(=O)[C@H](Cc1c[nH]cn1)NC(=O)[C@H](CCCCN)NC(=O)CNC(=O)[C@@H](NC(=O)[C@H](Cc1c[nH]cn1)NC(=O)[C@H](C)NC(=O)[C@H](C)NC(=O)[C@H](CCCCN)NC(=O)[C@H](CCCCN)NC(=O)[C@H](Cc1ccccc1)NC(=O)[C@H](Cc1ccccc1)NC(=O)[C@H](CO)NC(=O)CNC(=O)[C@H](Cc1c[nH]c2ccccc12)NC(=O)CN)C(C)C)C(C)C)[C@@H](C)O)C(=O)O [Pleu, Pleurocidin] (H-GWGSFFKKAAHVGKHVGKAALTHYL-OH)","MIC of MG1655 under the pressure of the same drug, generation 20","E. coli K-12 MG1655; as E2, generation 20",2 µg/mL
same,"MIC of MG1655 under the pressure of the same drug, generation 30","E. coli K-12 MG1655; as E2, generation 30",2 µg/mL
same,"MIC of MG1655 under the pressure of the same drug, generation 40","E. coli K-12 MG1655; as E2, generation 40",2 µg/mL
same,"MIC of MG1655 under the pressure of the same drug, generation 50","E. coli K-12 MG1655; as E2, generation 50",2 µg/mL
same,"MIC of MG1655 under the pressure of the same drug, generation 60","E. coli K-12 MG1655; as E2, generation 60",2 µg/mL
same,"MIC of MG1655 under the pressure of the same drug, generation 70","E. coli K-12 MG1655; as E2, generation 70",2 µg/mL
same,"MIC of MG1655 under the pressure of the same drug, generation 80","E. coli K-12 MG1655; as E2, generation 80",2 µg/mL
same,"MIC of MG1655 under the pressure of the same drug, generation 90","E. coli K-12 MG1655; as E2, generation 90",2 µg/mL
same,"MIC of MG1655 under the pressure of the same drug, generation 100","E. coli K-12 MG1655; as E2, generation 100",2 µg/mL
same,"MIC of MG1655 under the pressure of the same drug, generation 110","E. coli K-12 MG1655; as E2, generation 110",2 µg/mL
same,"MIC of MG1655 under the pressure of the same drug, generation 120","E. coli K-12 MG1655; as E2, generation 120",2 µg/mL
same,"MIC of MG1655 under the pressure of the same drug, generation primary","E. coli K-12 MG1655; broth microdilution (CLSI), primary MG1655 before passage",2 µg/mL
same,"MIC of MG1655 under the pressure of the same drug, generation 10","E. coli K-12 MG1655; broth microdilution, line passaged in MH broth with sub-inhibitory drug, 12 h per passage, 37℃, generation 10",2 µg/mL
same,"MIC values of evolved MG1655, strain AMP120",AMP120 (evolved MG1655),1 µg/mL
same,"MIC values of evolved MG1655, strain AZI120",AZI120 (evolved MG1655),1 µg/mL
same,"MIC values of evolved MG1655, strain CHL80",CHL80 (evolved MG1655),1 µg/mL
same,"MIC values of evolved MG1655, strain CIP120",CIP120 (evolved MG1655),1 µg/mL
same,"MIC values of evolved MG1655, strain COL120",COL120 (evolved MG1655),1 µg/mL
same,"MIC values of evolved MG1655, strain DOX120",DOX120 (evolved MG1655),1 µg/mL
same,"MIC values of evolved MG1655, strain KAN80",KAN80 (evolved MG1655),1 µg/mL
same,"MIC values of evolved MG1655, strain NIT70",NIT70 (evolved MG1655),1 µg/mL
same,"MIC values of evolved MG1655, strain TMP30",TMP30 (evolved MG1655),1 µg/mL
